Results from patent US7517872B2, “Compounds for the treatment of hepatitis C” (Bristol-Myers Squibb Company, priority 2007, dated 2009).
pEC50, pIC50: −log10 of the molar value. Where two headings read alike, the source gives them in different places.

Assays:
[1] = biological target: T1, HCV NS5B RdRp genotype 1b (Hepatitis C virus genotype 1b, UniProt Q9WMX2); assay: Modified HCV NS5B RdRp enzyme assay (preincubation protocol); assay type: biochemical
T1 construct: The protein was expressed with an 18 amino acid C-terminal truncation to enhance the solubility; made in house; host or cells: E. coli BL21(DE3), pET21a vector
T1 sequence (Q9WMX2 2420-2992): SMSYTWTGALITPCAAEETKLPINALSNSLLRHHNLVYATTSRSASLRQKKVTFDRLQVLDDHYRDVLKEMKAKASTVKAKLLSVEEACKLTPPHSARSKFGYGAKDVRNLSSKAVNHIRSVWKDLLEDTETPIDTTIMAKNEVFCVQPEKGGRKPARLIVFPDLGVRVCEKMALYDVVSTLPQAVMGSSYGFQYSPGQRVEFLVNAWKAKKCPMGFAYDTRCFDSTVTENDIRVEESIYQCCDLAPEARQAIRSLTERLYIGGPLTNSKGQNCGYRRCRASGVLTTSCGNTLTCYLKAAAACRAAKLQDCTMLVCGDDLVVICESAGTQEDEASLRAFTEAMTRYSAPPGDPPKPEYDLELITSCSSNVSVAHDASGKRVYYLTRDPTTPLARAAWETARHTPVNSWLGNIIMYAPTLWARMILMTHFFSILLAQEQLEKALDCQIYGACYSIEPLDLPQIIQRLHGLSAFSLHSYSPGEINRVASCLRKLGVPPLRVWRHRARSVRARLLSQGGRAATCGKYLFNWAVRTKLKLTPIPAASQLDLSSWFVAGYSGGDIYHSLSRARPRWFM
Procedure: HCV NS5B RdRp cloning, expression, and purification. The cDNA encoding the NS5B protein of HCV, genotype 1b, was cloned into the pET21a expression vector. The protein was expressed with an 18 amino acid C-terminal truncation to enhance the solubility. The E. coli competent cell line BL21(DE3) was used for expression of the protein. Cultures were grown at 37° C. for ˜4 hours until the cultures reached an optical density of 2.0 at 600 nm. The cultures were cooled to 20° C. and induced with 1 mM IPTG. Fresh ampicillin was added to a final concentration of 50 μg/ml and the cells were grown overnight at 20° C.
Cell pellets (3L) were lysed for purification to yield 15-24 mgs of purified NS5B. The lysis buffer consisted of 20 mM Tris-HCl, pH 7.4, 500 mM NaCl, 0.5% triton X-100, 1 mM DTT, 1 mM EDTA, 20% glycerol, 0.5 mg/ml lysozyme, 10 mM MgCl2, 15 ug/ml deoxyribonuclease I, and Complete TM protease inhibitor tablets (Roche). After addition of the lysis buffer, frozen cell pellets were resuspended using a tissue homogenizer. To reduce the viscosity of the sample, aliquots of the lysate were sonicated on ice using a microtip attached to a Branson sonicator. The sonicated lysate was centrifuged at 100,000×g for 1 hr at 4° C. and filtered through a 0.2 μm filter unit (Corning).
The protein was purified using three sequential chromatography steps: Heparin sepharose CL-6B, polyU sepharose 4B, and Hitrap SP sepharose (Pharmacia). The chromatography buffers were identical to the lysis buffer but contained no lysozyme, deoxyribonuclease I, MgCl2 or protease inhibitor and the NaCl concentration of the buffer was adjusted according to the requirements for charging the protein onto the column. Each column was eluted with a NaCl gradient which varied in length from 5-50 column volumes depending on the column type. After the final chromatography step, the resulting purity of the enzyme is >90% based on SDS-PAGE analysis. The enzyme was aliquoted and stored at −80° C.
Standard HCV NS5B RdRp enzyme assay. HCV RdRp genotype 1b assays were run in a final volume of 60 μl in 96 well plates (Costar 3912). The assay buffer is composed of 20 mM Hepes, pH 7.5, 2.5 mM KCl, 2.5 mM MgCl2, 1 mM DTT, 1.6 U RNAse inhibitor (Promega N2515), 0.1 mg/ml BSA (Promega R3961), and 2% glycerol. All compounds were serially diluted (3-fold) in DMSO and diluted further in water such that the final concentration of DMSO in the assay was 2%. HCV RdRp genotype 1b enzyme was used at a final concentration of 28 nM. A polyA template was used at 6 nM, and a biotinylated oligo-dT12 primer was used at 180 nM final concentration. Template was obtained commercially (Amersham 27-4110). Biotinylated primer was prepared by Sigma Genosys. 3H-UTP was used at 0.6 μCi (0.29 μM total UTP). Reactions were initiated by the addition of enzyme, incubated at 30° C. for 60 min, and stopped by adding 25 μl of 50 mM EDTA containing SPA beads (4 μg/μl, Amersham RPNQ 0007). Plates were read on a Packard Top Count NXT after >1 hr incubation at room temperature.
Modified HCV NS5B RdRp enzyme assay. A modified enzyme assay was performed essentially as described for the standard enzyme assay except for the following: The biotinylated oligo dT12 primer was precaptured on streptavidin-coated SPA beads by mixing primer and beads in assay buffer and incubating at room temperature for one hour. Unbound primer was removed after centrifugation. The primer-bound beads were resuspended in 20 mM Hepes buffer, pH 7.5 and used in the assay at final concentrations of 20 nM primer and 0.67 μg/μl beads. Order of addition in the assay: enzyme (14 nM) was added to diluted compound followed by the addition of a mixture of template (0.2 nM), 3H-UTP (0.6 μCi, 0.29 μM), and primer-bound beads, to initiate the reaction; concentrations given are final. Reactions were allowed to proceed for 4 hours at 30° C.
IC50 values for compounds were determined using seven different [I]. […]

HCV replicon cells = assay: HCV replicon FRET assay; assay type: cell-based; details: Hepatitis C virus
Description: FRET Assay Preparation. To perform the HCV FRET screening assay, 96-well cell culture plates were used. The FRET peptide (Anaspec, Inc.) (Taliani et al., Anal. Biochem. 1996, 240, 60-67) contains a fluorescence donor, EDANS, near one end of the peptide and an acceptor, DABCYL, near the other end. The fluorescence of the peptide is quenched by […] resonance energy transfer (RET) between the donor and the acceptor, but as the NS3 protease cleaves the peptide the products are released from RET quenching and the fluorescence of the donor becomes apparent. The assay reagent was made as follows: 5× cell Luciferase cell culture lysis reagent from Promega (#E153A) diluted to 1× with dH2O, NaCl added to 150 mM final, the FRET peptide diluted to 20 μM final from a 2 mM stock.
To prepare plates, HCV replicon cells, with or without a Renilla luciferase reporter gene, were trypsinized and placed into each well of a 96-well plate with titrated test compounds added in columns 3 through 12; columns 1 and 2 contained a control compound (HCV protease inhibitor), and the bottom row contained cells without compound. The plates were then placed in a CO2 incubator at 37° C.
Assays. Subsequent to addition of the test compounds described above (FRET Assay Preparation), at various times the plate was removed and Alamar blue solution (Trek Diagnostics, #00-100) was added per well as a measure of cellular toxicity. After reading in a Cytoflour 4000 instrument (PE Biosystems), plates were rinsed with PBS and then used for FRET assay by the addition of 30 ul of the FRET peptide assay reagent described above (FRET Assay Preparation) per well. The plate was then placed into the Cytoflour 4000 instrument which had been set to 340 excite/490 emission, automatic mode for 20 cycles and the plate read in a kinetic mode. Typically, the signal to noise using an endpoint analysis after the reads was at least three-fold. Alternatively, after Alamar blue reading, plates were rinsed with PBS, 50 ul of DMEM (high glucose) without phenol red was added and plates were then used for luciferase assay using the Promega Dual-Glo Luciferase Assay System.
Compound analysis was determined by quantification of the relative HCV replicon inhibition and the relative cytotoxicity values. To calculate cytoxicity values, the average Alamar Blue fluorescence signals from the control wells were set as 100% non-toxic. The individual signals in each of the compound test wells were then divided by the average control signal and multiplied by 100% to determine […]. To calculate the HCV replicon inhibition values, an average background value was obtained from the two wells containing the highest amount of HCV protease inhibitor at the end of the assay period. These numbers were similar to those obtained from naive Huh-7 cells.
The background numbers were then subtracted from the average signal obtained from the control wells and this number was used as 100% activity. The individual signals in each of the compound test wells were then divided by the averaged control values after background subtraction and multiplied by 100% to determine percent activity. EC50 values for a protease inhibitor titration were calculated as the concentration which caused a 50% reduction in FRET or luciferase activity. The two numbers generated for the compound plate, percent cytoxicity and percent activity were used to determine compounds of interest for further analysis.

[2] = HCV NS5B RdRp genotype 1b, preincubation protocol, read-out: IC50
[3] = HCV replicon cells, FRET assay, read-out: EC50

With `COc1ccc2c(c1)C=C(C(=O)N1C[C@@H](C)O[C@@H](C)C1)Cn1c-2c(C2CCCCC2)c2ccc(C(=O)NS(=O)(=O)N(C)C)nc21` the pIC50 [1, 2] was 6.30 to 9.00 and the pEC50 (HCV replicon cells; [3]) was < 6.30.
Molecule `COc1ccc2c(c1)C=C(C(=O)N1C[C@@H](C)N(C)[C@@H](C)C1)Cn1c-2c(C2CCCCC2)c2ccc(C(=O)NS(=O)(=O)N(C)C)nc21` has a pIC50 [1, 2] of 6.30 to 9.00 and a pEC50 (HCV replicon cells; [3]) of 6.30 to 9.00.
With `COc1ccc2c(c1)[C@@H]1C[C@]1(C(=O)N1[C@@H]3CC[C@H]1CN(C)C3)Cn1c-2c(C2CCCCC2)c2ccc(C(=O)NS(=O)(=O)N(C)C)nc21` the pIC50 [1] was 6.30 to 9.00 and the pEC50 (HCV replicon cells) was < 7.00.
In the case of `COc1ccc2c(c1)C=C(C(=O)N1C[C@@H](C)O[C@@H](C)C1)Cn1c-2c(C2CCCCC2)c2cccnc21`, the pIC50 [1, 2] was 5.00 to 6.30 and the pEC50 (HCV replicon cells; [3]) was < 6.43.
With `COC(=O)C1=Cc2cc(OC)ccc2-c2c(C3CCCCC3)c3ccc(C(=O)NS(=O)(=O)N(C)C)nc3n2C1` the pIC50 [1, 2] was 6.30 to 9.00 and the pEC50 (HCV replicon cells; [3]) was 5.00 to 6.30.
With `CNS(=O)(=O)NC(=O)c1ccc2c(C3CCCCC3)c3n(c2n1)CC(C(=O)N1C[C@@H](C)O[C@@H](C)C1)=Cc1cc(OC)ccc1-3` the pIC50 [1, 2] was 6.30 to 9.00 and the pEC50 (HCV replicon cells; [3]) was 5.00 to 6.30.
With `COc1ccc2c(c1)[C@@H]1C[C@]1(C(=O)N1[C@@H]3CC[C@H]1CN(C)C3)Cn1c-2c(C2CCCCC2)c2ccc(C(=O)N(C)S(=O)(=O)N(C)C)nc21` the pIC50 [1] was 5.00 to 6.30 and the pEC50 (HCV replicon cells) was < 7.00.
